For 44 molecules, IC50 results are on record in patent US11542233B2, “Compounds, compositions and methods of use” (Aquinnah Pharmaceuticals, Inc., priority 2016, dated 2023).

The term IC50 denotes the concentration that inhibits the measured activity by half.

For the first experiment, the system named is TDP-43 aggregation in PC12 cells stably expressing GFP-tagged mutant TDP-43 (TDP-43^Q33IK::eGFP). Briefly: In vitro efficacy assay: inhibition of TDP-43 inclusions, concentration-response, fluorescence microscopy. It is filed as cell-based. Particulars: PC12 cells, 1 hour pre-treatment, 15 μM sodium arsenite for 23 hours, 10-point dose response curve. As for the experimental part:
Exemplary compounds of the invention were evaluated for efficacy in inhibiting TDP-43 inclusions using a concentration-response assay. Briefly, PC12 cells stably expressing a GFP-tagged mutant form of TDP-43 (TDP-43^Q33IK::eGFP) were pre-treated for 1 hour with exemplary compounds and stressed with 15 μM sodium arsenite for 23 hours to induce TDP-43 aggregation. The inhibitory effect on TDP-43 aggregation was measured using fluorescence microscopy. The ratio of cells with TDP-43 aggregates was calculated based on the total number of cells with detectable GFP expression. In the table, “A” indicates an IC50 of less than 100 nM, “B” indicates an IC50 range from 100 nM to 500 nM; “C” indicates an IC50 range from 500 nM to 2 μM; and “D” indicates an IC50 greater than 2 μM.
With `CCN(C(=O)c1cc2ccccc2[nH]1)[C@H]1CCC[C@@H](NCc2cccc(F)c2)C1` [Compound 106, N-ethyl-N-((1S,3R)-3-((3-fluorobenzyl)amino)cyclohexyl)-1H-indole-2-carboxamide], the IC50 was < 100 nM.
The same measure, in the same setting: to `CCN(C(=O)c1cc2ccccc2[nH]1)[C@H]1CCC[C@@H](NCc2cccc(F)c2)C1` [Compound 122] belongs > 2000 nM.

The experiment is the same for the next values; noted with them: Rattus norvegicus, PC-12, PC12 cells, 1 hour pre-treatment, 15 μM sodium arsenite for 23 hours, 10-point dose response curve.
As to `CCN(C(=O)c1cc2ccccc2[nH]1)[C@H]1CCC[C@@H](N[C@H](c2cncnc2)C(F)(F)F)C1` (single isomer, unassigned) [Compound 412], the 50% inhibitory concentration (IC50) is 100 to 500 nM.
Still for that read-out and setting: to `CCN(C(=O)c1cc2ccccc2[nH]1)[C@H]1CCC[C@@H](N[C@@H](c2cncnc2)C(F)(F)F)C1` (single isomer, unassigned) [Compound 413] belongs 500 to 2000 nM.
For the molecule `CCN(C(=O)c1cc2ncccc2[nH]1)[C@H]1CCC[C@@H](N[C@H](c2ccccc2)C(F)(F)F)C1` (single isomer, unassigned) [Compound 416], the IC50 lay within 500 to 2000 nM.
Still for that read-out and setting: for `CCN(C(=O)c1cc2ncccc2[nH]1)[C@H]1CCC[C@@H](N[C@@H](c2ccccc2)C(F)(F)F)C1` (single isomer, unassigned) [Compound 417] the value was 100 to 500 nM; for `CCN(C(=O)c1cc2ccccc2[nH]1)[C@H]1CCC[C@@H](NCc2ccccc2)C1` [Compound 100, N-((1S,3R)-3-(benzylamino)cyclohexyl)-N-ethyl-1H-indole-2-carboxamide], < 100 nM; for `CCN(C(=O)c1cc2ccccc2[nH]1)C1CCC[C@@H](NCc2ccccc2)C1` (some centres unmarked) [Compound 101], < 100 nM.
With `CCN(C(=O)c1cc2ccccc2[nH]1)[C@H]1CCC[C@H](NCc2ccccc2)C1` [Compound 102], the IC50 is 500 to 2000 nM.
On the same count and under the same terms, for `CCN(C(=O)c1cc2ccccc2[nH]1)[C@@H]1CCC[C@H](NCc2ccccc2)C1` [Compound 103] the value was 500 to 2000 nM; for `CCN(C(=O)c1cc2ccccc2[nH]1)[C@@H]1CCC[C@@H](NCc2ccccc2)C1` [Compound 104], 500 to 2000 nM; for `CCN(C(=O)c1cc2ccccc2[nH]1)[C@H]1CCC[C@@H](N(C)Cc2ccccc2)C1` [Compound 105, N-((1S,3R)-3-(benzyl(methyl)amino)cyclohexyl)-N-ethyl-1H-indole-2-carboxamide], 100 to 500 nM.
Regarding `CCN(C(=O)c1cc2ccccc2[nH]1)[C@H]1CCC[C@H](NCc2cccc(F)c2)C1` [Compound 107, N-ethyl-N-((1S,3S)-3-((3-fluorobenzyl)amino)cyclohexyl)-1H-indole-2-carboxamide], the IC50 was in the range of 500 to 2000 nM.
Take `CCN(C(=O)c1cc2ccccc2[nH]1)[C@H]1CCC[C@@H](NCc2cccnc2)C1` [Compound 108]: the IC50 fell in the range of 100 to 500 nM.
Turning to `CCN(C(=O)c1cc2ccccc2[nH]1)[C@H]1CCC[C@H](NCc2cccnc2)C1` [Compound 109], the IC50 lay within 500 to 2000 nM.
The same measure, in the same setting: for `CCN(C(=O)c1cc2ccccc2[nH]1)C1CCC[C@H](NCc2ccc(F)cc2)C1` (some centres unmarked) [Compound 110] the value was 100 to 500 nM; for `CCN(C(=O)c1cc2ccccc2[nH]1)C1CCC[C@@H](NCc2ccc(F)cc2)C1` (some centres unmarked) [Compound 111], < 100 nM; for `CCN(C(=O)c1cc2ccccc2[nH]1)C1CCCC(NC2CCc3ccccc32)C1` (centres unmarked) [Compound 112], < 100 nM.
For `CCN(C(=O)c1cc2ccccc2[nH]1)[C@@H]1CCC[C@@H](N[C@H]2CCc3ccccc32)C1` [Compound 113], the half-maximal inhibitory concentration (IC50) is 500 to 2000 nM.
With `CCN(C(=O)c1cc2ccccc2[nH]1)[C@@H]1CCC[C@@H](N[C@@H]2CCc3ccccc32)C1` [Compound 114], the IC50 is > 2000 nM.
As for `CCN(C(=O)c1cc2ccccc2[nH]1)[C@H]1CCC[C@@H](N2CCc3ccccc3C2)C1` [Compound 115], the 50% inhibitory concentration (IC50) is 500 to 2000 nM.
Take `CCN(C(=O)c1cc2ccccc2[nH]1)[C@H]1CCC[C@H](N2CCc3ccccc3C2)C1` [Compound 116]: the half-inhibitory concentration (IC50) is 500 to 2000 nM.
For `CCN(C(=O)c1cc2ccccc2[nH]1)[C@H]1CCC[C@@H](NCCC2CC2)C1` [Compound 117], the IC50 was < 100 nM.
On the same count and under the same terms, for `CCN(C(=O)c1cc2ccccc2[nH]1)[C@H]1CCC[C@@H](NCC2CCOCC2)C1` [Compound 118] the value was 100 to 500 nM; for `CCN(C(=O)c1cc2ccccc2[nH]1)[C@H]1CCC[C@H](NCC2CCOCC2)C1` [Compound 119], < 100 nM.
On to `CCN(C(=O)c1cc2ccccc2[nH]1)[C@H]1CCC[C@@H](N[C@H]2CCc3ccccc32)C1` [Compound 120], for which the concentration for half-maximal inhibition (IC50) was 500 to 2000 nM.
Still for that read-out and setting: for `CCN(C(=O)c1cc2ccccc2[nH]1)[C@H]1CCC[C@@H](N[C@@H]2CCc3ccccc32)C1` [Compound 121] the value was > 2000 nM; for `CCN(C(=O)c1cc2ccccc2[nH]1)[C@H]1CCC[C@@H](NCc2ccc(F)cc2)C1` [Compound 123, N-ethyl-N-((1S,3R)-3-((4-fluorobenzyl)amino)cyclohexyl)-1H-indole-2-carboxamide], < 100 nM; for `CCN(C(=O)c1cc2ccccc2[nH]1)[C@H]1CCC[C@@H](N[C@H]2CCc3cc(F)ccc32)C1` [Compound 124], < 100 nM.
For `CCN(C(=O)c1cc2ccccc2[nH]1)[C@H]1CCC[C@@H](N[C@@H]2CCc3cc(F)ccc32)C1` [Compound 125], the IC50 is 100 to 500 nM.
With `CCN(C(=O)c1cc2ccccc2[nH]1)[C@H]1CCC[C@@H](NCc2ccncc2)C1` [Compound 126], the half-maximal inhibitory concentration (IC50) lay within 100 to 500 nM.
With `CCN(C(=O)c1cc2ccccc2[nH]1)[C@H]1CCC[C@@H](NCc2ccccn2)C1` [Compound 127], the IC50 is < 100 nM.
Still for that read-out and setting: for `CCN(C(=O)c1cc2ccccc2[nH]1)[C@H]1CCC[C@@H](NCc2ccc(OC)cc2)C1` [Compound 128] the value was < 100 nM; for `CCN(C(=O)c1cc2c(OC)cccc2[nH]1)[C@H]1CCC[C@@H](NCc2ccccc2)C1` [Compound 129], < 100 nM.
Still for that read-out and setting: for `CCN(C(=O)c1cc2ccccc2[nH]1)[C@H]1CCC[C@@H](NCc2cncnc2)C1` [Compound 130] the value was 500 to 2000 nM.
As to `CCN(C(=O)c1cc2ccccc2[nH]1)[C@H]1CCC[C@@H](NCc2cnc(C)nc2)C1` [Compound 131], the IC50 lay within 100 to 500 nM.
For `CCN(C(=O)c1cc2ccccc2[nH]1)[C@H]1CCC[C@@H](NCc2cnc(OC)nc2)C1` [Compound 132], the IC50 is < 100 nM.
Still for that read-out and setting: to `CCN(C(=O)c1cc2ccccc2[nH]1)[C@H]1CCC[C@@H](NCc2cnc(Cl)nc2)C1` [Compound 133] belongs 100 to 500 nM; to `CCN(C(=O)c1cc2ccccc2[nH]1)[C@H]1CCC[C@@H](NCc2cccc(Cl)c2)C1` [Compound 134], < 100 nM.
Take `CCN(C(=O)c1cc2ccccc2[nH]1)[C@H]1CCC[C@@H](NCc2ccc(Cl)cc2)C1` [Compound 135]: the IC50 was < 100 nM.
The same measure, in the same setting: for `CCN(C(=O)c1cc2ccccc2[nH]1)[C@H]1CCC[C@@H](NCc2ncccn2)C1` [Compound 136] the value was 100 to 500 nM; for `CCN(C(=O)c1cc2ccccc2[nH]1)[C@H]1CCC[C@@H](NCc2ccncn2)C1` [Compound 137], 100 to 500 nM.
On the same count and under the same terms, to `CCN(C(=O)c1cc2ncccc2[nH]1)[C@H]1CCC[C@@H](NCc2cccc(F)c2)C1` [Compound 150, N-ethyl-N-((1S,3R)-3-((3-fluorobenzyl)amino)cyclohexyl)-1H-pyrrolo[3,2-b]pyridine-2-carboxamide] belongs < 100 nM.
For `CCN(C(=O)c1cc2ncccc2[nH]1)[C@H]1CCC[C@@H](NCc2ccccc2)C1` [Compound 151], the IC50 is < 100 nM.
